Data set [1] relates to IPEC2 cells (swine intestinal cell line IPEC2-J2). The data set is described as follows: Methylated DNA quantification in swine intestinal cell line treated with antibiotics. Type of data set: cell-based. The following applies: for average amount of methylated DNA: Tet 200 mg/L, Amx 100 mg/L, Col 480 mg/L, ± SEM; for size of the reduction in overall DNA methylation (rank among the three antibiotics): within 24 hrs of treatment, compared with antibiotic free control cells. How it is done:
An in vitro to investigate the effects of three different antibiotics on the DNA methylation quantity in a swine intestinal cell line.
An immortalised cell line from swine intestines (IPEC2-J2 ACC 701 from DSMZ cell culture) was utilized in the 7th passage. In a 12 well, flat-bottom plate, 1×10^4 cel|s/well were seeded with DPBS D8537 (Sigma-Aldrich) and initially incubated for 4 days. After incubation cells were treated with one of 4 treatments for up to an additional 4 days: • 1) Incubation for 4 days without any antibiotics • 2) Incubation for 1 day with antibiotics followed by incubation for 1-3 days in antibiotic free media • 3) Incubation for 2 days with antibiotics followed by incubation for 1-2 days in antibiotic free media • 4) Incubation for 3 days with antibiotics followed by incubation for 1 day in antibiotic free media
Treatments 2, 3 and 4 were repeated with 3 different antibiotic treatments; tetracycline hydrochloride at 200 mg/L, Amoxicillin at 100 mg/L and Colistin at 480 mg/L. Duplicate cells per treatment were harvested at each time point. Media was removed, cells were washed once with DPBS, and a cell scraper was used to disassociate the cells from the bottom of the well. Cell pellets were then stored at −80° C. until DNA could be isolated using the NuceloSpin® DNA Stool Kit (Macherey and Nagel). Methylation grade of 100ng of isolated DNA was determined using the Imprint® Methylated DNA Quantification Kit (Sigma-Aldrich) which compared samples to a standard curve of known methylated DNA.

The conditions of data set [2]: cited from earlier work; for Absorption: absorption level of the antibiotic.
[3] abbreviates: 1 day with antibiotic before washing, harvested Day 1.
[4] abbreviates: 1 day with antibiotic before washing, harvested Day 2.
Where [5] appears, read: 1 day with antibiotic before washing, harvested Day 3.
The mark [6] stands for this setting: 1 day with antibiotic before washing, harvested Day 4.
Where [7] appears, read: 2 days with antibiotic before washing, harvested Day 2.
Setting [8] is: 2 days with antibiotic before washing, harvested Day 3.
The mark [9] stands for this setting: 2 days with antibiotic before washing, harvested Day 4.
The mark [10] stands for this setting: 3 days with antibiotic before washing, harvested Day 3.
[11] abbreviates: 3 days with antibiotic before washing, harvested Day 4.

These results are taken from patent US20260015662A1, “DETECTING ANTIBIOTIC AND/OR CHEMICAL USE IN ANIMALS USING EPIGENETIC MEANS” (Evonik Operations GmbH, priority 2022, published 2026).

Counter-ions that a name gives are not always drawn.

`CC1(C)S[C@@H]2[C@H](NC(=O)[C@H](N)c3ccc(O)cc3)C(=O)N2[C@H]1C(=O)O` [Amoxicillin]: the “average amount of methylated DNA” value in data set [1] (setting [3]) is 4.1 ± 8.9 ng/100 ng isolated DNA; in data set [1] (setting [4]) it was 12.3 ± 3.2 ng/100 ng isolated DNA; in data set [1] (setting [5]), 20.4 ± 8.3 ng/100 ng isolated DNA; in data set [1] (setting [6]) it was 19.0 ± 2.1 ng/100 ng isolated DNA; in data set [1] (setting [7]) it was 20.9 ± 10.4 ng/100 ng isolated DNA; in data set [1] (setting [8]), 9.8 ± 4.7 ng/100 ng isolated DNA. In addition, the results for the “average amount of methylated DNA” value in data set [1] (setting [9]), in data set [1] (setting [10]) and in data set [1] (setting [11]) were 21.3 ± 3.4 ng/100 ng isolated DNA, 26.0 ± 10.2 ng/100 ng isolated DNA and 10.2 ± 9.4 ng/100 ng isolated DNA, respectively. Further, in data set [2], the Absorption entry is listed as “Systemic”. Besides, the “Recommended Withdrawal for Broilers” value in data set [2] was 1 to 4 days.

`CN(C)[C@@H]1C(O)=C(C(N)=O)C(=O)[C@@]2(O)C(O)=C3C(=O)c4c(O)cccc4[C@@](C)(O)[C@H]3C[C@@H]12` [Tet, tetracycline hydrochloride]: the “average amount of methylated DNA” value in data set [1] (setting [3]) is reported as −5.6 ± 2.9 ng/100 ng isolated DNA; in data set [1] (setting [4]) it was 12.0 ± 6.9 ng/100 ng isolated DNA; in data set [1] (setting [5]), 18.2 ± 16.0 ng/100 ng isolated DNA; in data set [1] (setting [6]), 25.8 ± 22.4 ng/100 ng isolated DNA; in data set [1] (setting [7]) it was 0.1 ± 8.1 ng/100 ng isolated DNA; in data set [1] (setting [8]) it was −8.6 ± 11.1 ng/100 ng isolated DNA. Moreover, the “average amount of methylated DNA” value in data set [1] (setting [9]) is reported as 7.4 ± 9.7 ng/100 ng isolated DNA; in data set [1] (setting [10]), 6.0 ± 13.2 ng/100 ng isolated DNA; in data set [1] (setting [11]) it was 21.7^3 ng/100 ng isolated DNA. In data set [1], the “size of the reduction in overall DNA methylation (rank among the three antibiotics)” value is “largest”.

For the compound `CC[C@H]1OC(=O)C[C@@H](O)[C@H](C)[C@@H](O[C@@H]2O[C@H](C)[C@@H](O[C@H]3C[C@@](C)(O)[C@@H](O)[C@H](C)O3)[C@H](N(C)C)[C@H]2O)[C@@H](CC=O)C[C@@H](C)C(=O)/C=C/C(C)=C/[C@@H]1CO[C@@H]1O[C@H](C)[C@@H](O)[C@@H](OC)[C@H]1OC` [Tylosin], in data set [2], the Absorption entry was “Systemic” and the “Recommended Withdrawal for Broilers” value is listed as 5 days.

As for Bacitracin Methylene Disalicylate [BMD], in data set [2], the Absorption result was “Local” and the “Recommended Withdrawal for Broilers” value is reported as “None required”.

Regarding Colistin, the “average amount of methylated DNA” value in data set [1] (setting [3]) is recorded as 26.1 ± 5.0 ng/100 ng isolated DNA; in data set [1] (setting [4]) it was 11.7 ± 6.8 ng/100 ng isolated DNA; in data set [1] (setting [5]) it was 19.6 ± 5.5 ng/100 ng isolated DNA; in data set [1] (setting [6]), 24.9 ± 0.8 ng/100 ng isolated DNA; in data set [1] (setting [7]), 29.5 ± 3.8 ng/100 ng isolated DNA; in data set [1] (setting [8]), 1.4 ± 7.9 ng/100 ng isolated DNA. Moreover, the “average amount of methylated DNA” value in data set [1] (setting [9]) is 19.0 ± 5.4 ng/100 ng isolated DNA; in data set [1] (setting [10]), 29.1 ± 18.0 ng/100 ng isolated DNA; in data set [1] (setting [11]) it was 28.5 ± 16.4 ng/100 ng isolated DNA. Also, the “size of the reduction in overall DNA methylation (rank among the three antibiotics)” value in data set [1] is given as “finally”.
